Patent US20180031580A1, “USE OF IGF-1 AS PROGNOSTIC FACTOR IN CALCIFICATION OF AORTIC VALVES” (THE ASAN FOUNDATION, priority 2015, published 2018)

Tested on: aortic valve vascular smooth muscle tissue
Assay: ALP staining of aortic valve vascular smooth muscle tissue, osteocytogenesis level
Assay type: in vivo, mice
Conditions: wild-type or eNOS-deficient mice treated with IGF-1 alone; FIG. 2a
Experimental: Wild-type mice or eNOS-deficient mice which are animal models with the aortic valve calcification were treated with insulin-like growth factor type 1 (IGF-1) alone or treated with dipeptidyl-peptidase 4 (DPP-4) and IGF-1 at the same time. Then, ALP staining was performed on the aortic valve vascular smooth muscle tissue, thereby comparing the […] level of tissue (FIG. 2a). Here, the aortic valve vascular smooth muscle tissue of the wild-type mice treated with nothing or the eNOS-deficient mice was used as a control group.
FIG. 2a are an image and a graph showing verification of the effect of DPP-4 on an action of IGF-1 inhibiting osteocytogenesis in the aortic valve vascular smooth muscle tissue of the wild-type mice or the eNOS-deficient mice.

Substance: IGF-1: polypeptide having a size of about 7.5 kDa present in a plasma of mammals; SEQ ID NO: 1
- osteocytogenesis of aortic valve vascular smooth muscle tissue (ALP staining): tended to be alleviated
